In US20220313701A1, “MODULATORS OF TREX1” (Constellation Pharmaceuticals, Inc., priority 2019, published 2022):

What was measured:
[1] = molecular target: T1, full length human TREX1 (Homo sapiens, UniProt Q9NSU2); assay: TREX1 Biochemical Assay (fluorescence assay, degradation of dsDNA substrate); settings: 150 pM TREX1, 60 nM dsDNA substrate, 25 minutes at room temperature
T1 construct: N-terminally His-Tev tagged full length human TREX1; His-Tev (His tag with TEV site) (N); made in house; host or cells: E. coli
T1 sequence (Q9NSU2 1-314): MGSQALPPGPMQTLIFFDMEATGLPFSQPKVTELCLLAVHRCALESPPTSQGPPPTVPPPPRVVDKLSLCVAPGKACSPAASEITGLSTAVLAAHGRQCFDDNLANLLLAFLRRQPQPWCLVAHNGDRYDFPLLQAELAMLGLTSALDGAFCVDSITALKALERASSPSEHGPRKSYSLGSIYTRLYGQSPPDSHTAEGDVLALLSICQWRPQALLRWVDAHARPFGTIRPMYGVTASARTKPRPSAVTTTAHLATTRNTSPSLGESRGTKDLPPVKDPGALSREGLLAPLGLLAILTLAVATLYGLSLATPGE
Protocol: Degradation of the dsDNA liberates free fluorophore to produce a fluorescent signal. Specifically, 7.5 μL of N-terminally His-Tev tagged full length human TREX1 (expressed in E. coli and purified in house) in reaction buffer (50 mM Tris (pH 7.4), 150 mM NaCl, 2 mM DTT, 0.1 mg/mL BSA, 0.01% (v/v) Tween-20 and either 100 mM MgCl2) was added to a 384-well Black ProxiPlate Plus (Perkin Elmer) which already contained compound (150 nL) at varying concentrations as a 10 point dose-response in DMSO. To this was added 7.5 μL of dsDNA substrate (Strand A: 5′ TEX615/GCT AGG CAG 3′; Strand B: 5′ CTG CCT AGC/IAbRQSp (Integrated DNA Technologies)) in reaction buffer. Final concentrations were 150 pM TREX1, 60 nM dsDNA substrate in reaction buffer with 1.0% DMSO (v/v). After 25 minutes at room temperature, reactions were quenched by the addition of 5 μL of stop buffer (same as reaction buffer plus 200 mM EDTA). Final concentrations in the quenched reaction were 112.5 pM TREX1, 45 nM DNA and 50 mM EDTA in a volume of 20 μL. After a 5-minute incubation at room temperature, plates were read in a laser sourced Envision (Perkin-Elmer), measuring fluorescence at 615 nm following excitation w/570 nm light. IC50 values were calculated by comparing the measured fluorescence at 615 nm ratio relative to control wells pre-quenched w/stop buffer (100% inhibition) and no inhibitor (0% inhibition) controls as using non-linear least square four parameter fits and either Genedata or GraphPad Prism (GraphPad Software, Inc.).

[2] = molecular target: T2, human TREX2 (residues M44-A279) (Homo sapiens, UniProt Q9BQ50); assay: TREX2 Biochemical Assay (fluorescence assay, degradation of dsDNA substrate); settings: 2.5 nM TREX2, 60 nM dsDNA substrate, 25 minutes at room temperature
T2 construct: human TREX2 (residues M44-A279, expressed in E. coli); His-Tev (His tag with TEV site) (N); made in house; host or cells: E. coli
T2 sequence (Q9BQ50 44-279 isoform Q9BQ50-1): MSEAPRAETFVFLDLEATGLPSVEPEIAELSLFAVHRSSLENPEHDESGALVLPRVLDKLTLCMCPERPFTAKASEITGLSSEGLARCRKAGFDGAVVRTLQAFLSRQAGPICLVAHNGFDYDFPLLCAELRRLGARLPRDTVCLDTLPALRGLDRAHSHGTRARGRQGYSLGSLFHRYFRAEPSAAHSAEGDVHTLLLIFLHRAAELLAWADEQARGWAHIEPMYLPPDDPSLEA
Protocol: Degradation of the dsDNA liberates free fluorophore to produce a fluorescent signal. Specifically, 7.5 μL of N-terminally His-Tev tagged human TREX2 (residues M44-A279, expressed in E. coli and purified in house) in reaction buffer (50 mM Tris (pH 7.4), 150 mM NaCl, 2 mM DTT, 0.1 mg/mL BSA, 0.01% (v/v) Tween-20 and 100 mM MgCl2) was added to a 384-well Black ProxiPlate Plus (Perkin Elmer) which already contained compound (150 nL) at varying concentrations as a 10 point dose-response in DMSO. To this was added 7.5 μL of dsDNA substrate (Strand A: 5′ TEX615/GCT AGG CAG 3′; Strand B: 5′ CTG CCT AGC/IAbRQSp (IDT)) in reaction buffer. Final concentrations were 2.5 nM TREX2, 60 nM dsDNA substrate in reaction buffer with 1.0% DMSO (v/v). After 25 minutes at room temperature, reactions were quenched by the addition of 5 μL of stop buffer (same as reaction buffer plus 200 mM EDTA). Final concentrations in the quenched reaction mixture were […] TREX2, 45 nM DNA and 50 mM EDTA in a volume of 20 μL. After a 5-minute incubation at room temperature, plates were read in a laser sourced Envision (Perkin-Elmer), measuring fluorescence at 615 nm following excitation w/570 nm light. IC50 values were calculated by comparing the measured fluorescence at 615 nm ratio relative to control wells pre-quenched w/stop buffer (100% inhibition) and no inhibitor (0% inhibition) controls as using non-linear least square four parameter fits and either Genedata or GraphPad Prism (GraphPad Software, Inc.).

SMILES	IC50 [1] [µM]	IC50 [2] [µM]
Cc1nn(C)cc1-c1cncc(N2CC[C@@](O)(c3ccc(F)c(F)c3)C[C@@H]2C)n1 (racemic) [Example 102, (rac)-cis-4-(3,4-difluorophenyl)-1-(6-(1,3-dimethyl-1H-pyrazol-4-yl)pyrazin-2-yl)-2-methylpiperidin-4-ol]	1 to 10	> 100
Cc1nn(C)cc1-c1cncc(N2CC[C@@](O)(c3ccc(F)c(F)c3)C[C@H]2C)n1 (racemic) [Example 103, (rac)-trans-4-(3,4-difluorophenyl)-1-(6-(1,3-dimethyl-1H-pyrazol-4-yl)pyrazin-2-yl)-2-methylpiperidin-4-ol]	1 to 10	> 100
OC1(c2ccc(Cl)cc2)CCN(c2cncc(-n3cccn3)n2)CC1 [Example 1, 1-(6-(1H-pyrazol-1-yl)pyrazin-2-yl)-4-(4-chlorophenyl)piperidin-4-ol]	1 to 10	10 to 100
COc1ccc(C2(O)CCN(c3cncc(-n4cccn4)n3)CC2)cc1 [Example 2, 1-(6-(1H-pyrazol-1-yl)pyrazin-2-yl)-4-(4-methoxyphenyl)piperidin-4-ol]	> 10	> 100
OC1(c2ccccc2F)CCN(c2cncc(-n3cccn3)n2)CC1 [Example 3, 1-(6-(1H-pyrazol-1-yl)pyrazin-2-yl)-4-(2-fluorophenyl)piperidin-4-ol]	> 10	> 100
Cn1cc(-c2cncc(N3CCC(O)(c4ccc(F)c(F)c4)CC3)n2)cn1 [Example 4, 4-(3,4-difluorophenyl)-1-(6-(1-methyl-1H-pyrazol-4-yl)pyrazin-2-yl)piperidin-4-ol]	0.1 to 1	10 to 100
Cn1cc(-c2cncc(N3CCC(O)(Cc4ccccc4)CC3)n2)cn1 [Example 5, 4-benzyl-1-(6-(1-methyl-1H-pyrazol-4-yl)pyrazin-2-yl)piperidin-4-ol]	> 10	> 100
Cn1cc(-c2cncc(N3CCC(O)(CCc4ccccc4)CC3)n2)cn1 [Example 6, 1-(6-(1-methyl-1H-pyrazol-4-yl)pyrazin-2-yl)-4-phenethylpiperidin-4-ol]	> 10	> 100
Cn1cc(-c2cncc(N3CCC(O)(c4ccc(F)cc4)CC3)n2)cn1 [Example 7, 4-(4-fluorophenyl)-1-(6-(1-methyl-1H-pyrazol-4-yl)pyrazin-2-yl)piperidin-4-ol]	1 to 10	> 100
Cc1nn(C)cc1-c1cncc(N2CCC(O)(c3ccc(F)cc3)CC2)n1 [Example 8, 1-(6-(1,3-dimethyl-1H-pyrazol-4-yl)pyrazin-2-yl)-4-(4-fluorophenyl)piperidin-4-ol]	0.1 to 1	> 100
Cc1nn(C)cc1-c1cncc(N2CCC(O)(c3ccc(F)c(F)c3)CC2)n1 [Example 9, 4-(3,4-difluorophenyl)-1-(6-(1,3-dimethyl-1H-pyrazol-4-yl)pyrazin-2-yl)piperidin-4-ol]	< 0.1	10 to 100
Cn1cc(-c2cncc(N3CCC(O)(c4ccc(F)c(F)c4)CC3)n2)c(C(F)(F)F)n1 [Example 10, 4-(3,4-difluorophenyl)-1-(6-(1-methyl-3-(trifluoromethyl)-1H-pyrazol-4-yl)pyrazin-2-yl)piperidin-4-ol]	< 0.1	10 to 100
Cn1cc(-c2cncc(N3CCC(O)(c4ccc(F)c(F)c4)CC3)n2)c(C2CC2)n1 [Example 11, 1-(6-(3-cyclopropyl-1-methyl-1H-pyrazol-4-yl)pyrazin-2-yl)-4-(3,4-difluorophenyl)piperidin-4-ol]	0.1 to 1	10 to 100
Cc1c(-c2cncc(N3CCC(O)(c4ccc(F)cc4)CC3)n2)cnn1C [Example 12, 1-(6-(1,5-dimethyl-1H-pyrazol-4-yl)pyrazin-2-yl)-4-(4-fluorophenyl)piperidin-4-ol]	1 to 10	> 100
OC1(c2ccc(F)cc2)CCN(c2cncc(-c3cnn(C(F)F)c3)n2)CC1 [Example 13, 1-(6-(1-(difluoromethyl)-1H-pyrazol-4-yl)pyrazin-2-yl)-4-(4-fluorophenyl)piperidin-4-ol]	1 to 10	> 100
